The results in this text go back to PubChem BioAssay AID248 (DTP/NCI, 2004).

Values joined by “and” are separate entries in the source; they are usually repeats but may differ in a detail not shown here. Identical values can stand only once. Toxic doses and inconclusive results are not listed.

For the assay, the system named is L1210 leukemia ip in BDF1 mice, survival T/C. Briefly: NCI In Vivo Anticancer Drug Screen. Data for tumor model L1210 Leukemia (intraperitoneal) in B6D2F1 (BDF1) mice. The note with it: endpoint: mean survival time, higher = longer survival. Summed up: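 Transplantable tumor model; survival measured in treated vs vehicle control mice. Value = treated/control.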

The mark [1] stands for this setting: dose: 100.0 mg/kg/injection, schedule: Q04DX002 (ip), vehicle: Klucel (hydroxypropylcellulose) (HPC).
Setting [2] is: dose: 200.0 mg/kg/injection, schedule: Q04DX002 (ip), vehicle: Klucel (hydroxypropylcellulose) (HPC).
[3] abbreviates: dose: 400.0 mg/kg/injection, schedule: Q04DX002 (ip), vehicle: Klucel (hydroxypropylcellulose) (HPC).
Setting [4] is: dose: 100.0 mg/kg/injection, schedule: Q04DX003 (ip), vehicle: saline with Tween-80.
Where [5] appears, read: dose: 200.0 mg/kg/injection, schedule: Q04DX003 (ip), vehicle: saline with Tween-80.
[6] abbreviates: dose: 400.0 mg/kg/injection, schedule: Q04DX003 (ip), vehicle: saline with Tween-80.
[7] abbreviates: dose: 100.0 mg/kg/injection, schedule: Q01DX009 (ip), vehicle: Klucel (hydroxypropylcellulose) (HPC).
Where [8] appears, read: dose: 100.0 mg/kg/injection, schedule: Q04DX003 (ip), vehicle: Klucel (hydroxypropylcellulose) (HPC).
Setting [9] is: dose: 200.0 mg/kg/injection, schedule: Q01DX009 (ip), vehicle: Klucel (hydroxypropylcellulose) (HPC).
Where [10] appears, read: dose: 200.0 mg/kg/injection, schedule: Q04DX003 (ip), vehicle: Klucel (hydroxypropylcellulose) (HPC).
Where [11] appears, read: dose: 400.0 mg/kg/injection, schedule: Q04DX003 (ip), vehicle: Klucel (hydroxypropylcellulose) (HPC).
Setting [12] is: dose: 100.0 mg/kg/injection, schedule: Q01DX001 (ip), vehicle: saline.
Where [13] appears, read: dose: 200.0 mg/kg/injection, schedule: Q01DX001 (ip), vehicle: saline.
The mark [14] stands for this setting: dose: 400.0 mg/kg/injection, schedule: Q01DX001 (ip), vehicle: saline.
Setting [15] is: dose: 50.0 mg/kg/injection, schedule: Q01DX009 (ip), vehicle: Klucel (hydroxypropylcellulose) (HPC).
The mark [16] stands for this setting: dose: 100.0 mg/kg/injection, schedule: Q01DX001 (ip), vehicle: carboxymethylcellulose (CMC).
Where [17] appears, read: dose: 200.0 mg/kg/injection, schedule: Q01DX001 (ip), vehicle: carboxymethylcellulose (CMC).
[18] abbreviates: dose: 400.0 mg/kg/injection, schedule: Q01DX001 (ip), vehicle: carboxymethylcellulose (CMC).
The mark [19] stands for this setting: dose: 100.0 mg/kg/injection, schedule: Q01DX009 (ip), vehicle: saline with Tween-80.
Setting [20] is: dose: 200.0 mg/kg/injection, schedule: Q01DX009 (ip), vehicle: saline with Tween-80.
Setting [21] is: dose: 400.0 mg/kg/injection, schedule: Q01DX009 (ip), vehicle: saline with Tween-80.
Where [22] appears, read: dose: 10.0 mg/kg/injection, schedule: Q01DX001 (ip), vehicle: saline.
Where [23] appears, read: dose: 100.0 mg/kg/injection, schedule: Q01DX001 (ip), vehicle: Klucel (hydroxypropylcellulose) (HPC).
The mark [24] stands for this setting: dose: 200.0 mg/kg/injection, schedule: Q01DX001 (ip), vehicle: Klucel (hydroxypropylcellulose) (HPC).
[25] abbreviates: dose: 400.0 mg/kg/injection, schedule: Q01DX001 (ip), vehicle: Klucel (hydroxypropylcellulose) (HPC).

In the case of `CC(C)OC(=S)SCC(=O)c1ccccc1`, the T/C is 92 % of control under setting [1], 101 % of control under setting [2] and 99 % of control under setting [3].

On to `Cc1ccc(C(=O)CCCCl)cc1C`, for which the T/C under setting [4] is 95 % of control, the T/C under setting [5] is 89 % of control and the T/C under setting [6] is 88 % of control.

For the molecule `CCCCCCCCC(=O)NCCCOC`, the T/C reads like this: under setting [7], 108 % of control; under setting [8], 96 % of control; under setting [9], 111 % of control; under setting [10], 91 % of control; (dose: 400.0 mg/kg/injection, schedule: Q01DX009 (ip), vehicle: Klucel (hydroxypropylcellulose) (HPC)) 97 % of control; under setting [11], 91 % of control.

On to `CCCNC(c1ccccc1)=[N+]1CCCCC1`, for which the T/C (dose: 12.5 mg/kg/injection, schedule: Q04DX002 (ip), vehicle: saline) was 95 % of control and the T/C (dose: 25.0 mg/kg/injection, schedule: Q04DX002 (ip), vehicle: saline) is 98 % of control.

Regarding `O=C(O)c1ccccc1N1C(=O)c2ccccc2C1=O`, the T/C is, setting by setting: under setting [12], 91 % of control; under setting [13], 96 % of control; under setting [14], 94 % of control.

On to `O=C1c2cc([N+](=O)[O-])ccc2-c2ccc([N+](=O)[O-])cc21`, for which the T/C runs as follows: under setting [15], 95 % of control and 90 % of control; under setting [16], 89 % of control; under setting [7], 109 % of control; under setting [1], 101 % of control; under setting [17], 87 % of control; under setting [9], 98 % of control and 102 % of control. In addition, the T/C runs as follows: under setting [2], 113 % of control; under setting [18], 97 % of control; under setting [3], 89 % of control.

As for `O=[N+]([O-])c1ccc(NN=C2c3ccccc3Cc3ccccc32)c([N+](=O)[O-])c1`, the T/C runs as follows: (dose: 100.0 mg/kg/injection, schedule: Q04DX002 (ip), vehicle: saline with Tween-80) 87 % of control; (dose: 400.0 mg/kg/injection, schedule: Q04DX002 (ip), vehicle: saline with Tween-80) 94 % of control.

As to `O=c1oc(-c2ccccc2)nc2cc(Cl)ccc12`, the T/C is, setting by setting: (dose: 25.0 mg/kg/injection, schedule: Q04DX003 (ip), vehicle: saline with Tween-80) 104 % of control; (dose: 50.0 mg/kg/injection, schedule: Q04DX003 (ip), vehicle: saline with Tween-80) 92 % of control; under setting [19], 90 % of control; under setting [4], 96 % of control and 103 % of control and 88 % of control; under setting [20], 87 % of control; under setting [5], 98 % of control. Besides, the T/C runs as follows: under setting [21], 92 % of control; under setting [6], 90 % of control.

Take `COc1ccc2cc(C(C)=O)ccc2c1`: the T/C (dose: 50.0 mg/kg/injection, schedule: Q01DX001 (ip), vehicle: saline) is 117 % of control; the T/C under setting [12] was 105 % of control; the T/C under setting [13] is 100 % of control; the T/C under setting [14] was 110 % of control.

For `CC(=O)c1cc2c(Br)cccc2oc1=O`, the T/C by setting is: under setting [12], 91 % of control; under setting [13], 98 % of control; under setting [14], 95 % of control.

With `CCOC(=O)C(C(=O)OCC)=C(C)C`, the T/C is, setting by setting: under setting [19], 95 % of control; under setting [4], 100 % of control; under setting [20], 100 % of control; under setting [5], 100 % of control; under setting [21], 102 % of control; under setting [6], 106 % of control.

`CCOC(=O)CCC(NC(=O)c1ccc(NC)c([N+](=O)[O-])c1)C(=O)OCC` (centres undefined): the T/C is, setting by setting: under setting [8], 98 % of control; under setting [10], 100 % of control; under setting [11], 96 % of control.

As for `Cc1ccccc1[P+](Cc1ccccc1)(c1ccccc1)c1ccccc1`, the T/C is, setting by setting: (dose: 5.0 mg/kg/injection, schedule: Q01DX001 (ip), vehicle: saline) 105 % of control; under setting [22], 103 % of control; (dose: 20.0 mg/kg/injection, schedule: Q01DX001 (ip), vehicle: saline) 100 % of control.

In the case of `CC[NH-].[Cl][Pt+2][Cl].[NH2-]`, the T/C runs as follows: (dose: 0.37 mg/kg/injection, schedule: Q01DX009 (ip), vehicle: other) 111 % of control; (dose: 0.75 mg/kg/injection, schedule: Q01DX001 (ip), vehicle: other) 107 % of control; (dose: 0.75 mg/kg/injection, schedule: Q01DX009 (ip), vehicle: other) 114 % of control; (dose: 1.5 mg/kg/injection, schedule: Q01DX001 (ip), vehicle: other) 111 % of control; (dose: 3.0 mg/kg/injection, schedule: Q01DX001 (ip), vehicle: other) 114 % of control; (dose: 3.0 mg/kg/injection, schedule: Q01DX009 (ip), vehicle: other) 157 % of control.

As to `CSCSCC(N)C(=O)O` (centres undefined), the T/C runs as follows: under setting [12], 94 % of control; (dose: 150.0 mg/kg/injection, schedule: Q04DX003 (ip), vehicle: saline) 100 % of control; under setting [13], 100 % of control; (dose: 300.0 mg/kg/injection, schedule: Q04DX003 (ip), vehicle: saline) 94 % of control; under setting [14], 100 % of control; (dose: 600.0 mg/kg/injection, schedule: Q04DX003 (ip), vehicle: saline) 97 % of control.

Turning to `O=[N+]([O-])CC(Nc1ccccc1)c1ccccc1` (centres undefined), the T/C is 108 % of control (dose: 12.5 mg/kg/injection, schedule: Q01DX009 (ip), vehicle: Klucel (hydroxypropylcellulose) (HPC)); 100 % of control (dose: 25.0 mg/kg/injection, schedule: Q01DX009 (ip), vehicle: Klucel (hydroxypropylcellulose) (HPC)); 96 % of control and 110 % of control (dose: 50.0 mg/kg/injection, schedule: Q01DX001 (ip), vehicle: Klucel (hydroxypropylcellulose) (HPC)); 102 % of control (dose: 50.0 mg/kg/injection, schedule: Q01DX001 (ip), vehicle: carboxymethylcellulose (CMC)); 102 % of control under setting [15]; 97 % of control and 98 % of control under setting [23]. Also, the T/C by setting is: under setting [16], 102 % of control; under setting [24], 102 % of control and 107 % of control; under setting [17], 100 % of control; under setting [25], 105 % of control; under setting [18], 90 % of control.

`CC(C)C(=O)OCP(=O)(COC(=O)C(C)C)COC(=O)C(C)C`: the T/C is 92 % of control under setting [4], 97 % of control under setting [5] and 93 % of control under setting [6].

`CC(C)=CCC(CCN1CCCC1)(C(N)=O)c1cccc2ccccc12` (centres undefined): the T/C is 102 % of control (dose: 5.0 mg/kg/injection, schedule: Q01DX009 (ip), vehicle: Klucel (hydroxypropylcellulose) (HPC)); 98 % of control (dose: 5.0 mg/kg/injection, schedule: Q04DX003 (ip), vehicle: Klucel (hydroxypropylcellulose) (HPC)); 95 % of control (dose: 10.0 mg/kg/injection, schedule: Q01DX009 (ip), vehicle: Klucel (hydroxypropylcellulose) (HPC)); 104 % of control (dose: 10.0 mg/kg/injection, schedule: Q04DX003 (ip), vehicle: Klucel (hydroxypropylcellulose) (HPC)); 98 % of control (dose: 20.0 mg/kg/injection, schedule: Q01DX009 (ip), vehicle: Klucel (hydroxypropylcellulose) (HPC)); 104 % of control (dose: 20.0 mg/kg/injection, schedule: Q04DX003 (ip), vehicle: Klucel (hydroxypropylcellulose) (HPC)).

In the case of `CC1OC(O[C@@H]2C=C3CC[C@@H]4[C@H](CC[C@]5(C)[C@@H](c6ccc(=O)oc6)CC[C@]45O)[C@@]3(C)CC2)C(O)C(O)C1O` (some centres undefined), the T/C under setting [22] was 101 % of control.

For the molecule `O=C1C2C=CC=CC1C=C2`, the T/C was 89 % of control under setting [15]; 92 % of control under setting [23]; 112 % of control under setting [7]; 101 % of control under setting [24]; 91 % of control under setting [9]; 95 % of control under setting [25].
